Key:
[1] = In vitro H2O hydrolysis and oxygen evolution catalyzed by LEAT protein under light; type: biochemical; design: key to O2 evolution activity: +: similar O2 evolution activity as that of YFP; ++: higher O2 evolution activity than that of YFP by at least one order of magnitude; weak: lower activity than that of YFP by at least one order of magnitude; settings: for O2 evolution activity: water hydrolysis and O2 evolution under light, relative to YFP
Experimental: 1.85 ml of 50 mM phosphate buffer (pH6.5) was added in the reaction vessel of Clark-type oxygen electrode, then LEAT proteins (at a final concentration of 0.02-1 μg/ml) and 400 μM 2,3,5-trimethyl-1,4-benzoquinone (TMBQ) or other quinones were sequentially added into the buffer in dark. The oxygen evolution rate was measured under the light with corresponding excitation wave length for LEAT proteins and light intensity at 1-2 μmol m^−2 s^−1.

[2] = Electron donation by pre-illuminated LEAT protein (NAD+/NADP+ reduction); type: biochemical
Experimental: FIG. 1. The effects of light on NAD^+ or NAPD^+ reduction by YFP.
It was reported that proteins such as GFP can function as electron donor to reduce the oxidized small compounds such as NAD^+, potassium ferricyanide, and some proteins such as cytochrome c, and FAD-containing proteins (Bogdanov A. M. et al, 2009, Nature Chemical Biology. 5:459-461), The invertors used E. coli to express and purify recombinant proteins. […] Quinone reduction under light was analyzed by monitoring the decrease of absorption at 436 nm.

[3] = test system: Brassica; test: Growth, biomass and yield of transgenic Brassica; type: in vivo, Brassica napus L.; settings: T1 transgenic Brassica, vegetative stage
From the text: FIG. 14. (A) WT, empty vector control (pHB) and mCherry transgenic Brassica (L1-L3) were germinated and grown for one week in the phytotron under white light (PPFD:250 μmol m^−2s^−1). Then the plants were moved and grown under white light, green light (PFD: 60 μmol m^−2s^−1) or red+blue light (red light PFD; 60 μmol m^−2s^−1, blue light PFD; 10 μmol m^−2s^−1) for another 3 weeks and photos were taken, (B) Comparison of the fresh weights and dry weights of WT and mCherry transgenic Brassica grown under white light, green light or red+blue light for four weeks. Values in the figures are means±SD, for WT, n=10, for transgenic plant transformed with empty vector control pHB and mCherry, data were the averages of three independent lines and 10 plants for each line. **p≦0.01. (C) Net photosynthetic rate of WT and mCherry transgenic Brassica measured under different light qualities. Nine-week-old WT and mCherry transgenic Brassica grown in the phytotron (PPFD: 250 μmol m^−2s^−1) were transferred and treated with different qualities of light for 4 days and net photosynthetic rate was measured. (D) Net photosynthetic rate of WT and mCherry transgenic Brassica grow in the natural field measured under different PPFD as light source. Net photosynthetic rate was measured in situ between 10:00 am and 12:00 pm. […] FIG. 15. (A) Measurement of the fresh weight and dry weight per plant of 7-week-old WT and mCherry transgenic Brassica plants grown in the natural field conditions. Values in the figures are means±SD, n=10. *p≦0.05, **p≦0.01. (B) Comparison of the plant size, silique size, seed size, grain yield per plant and 1000-seed weight at the harvesting time. Values in the figures are means±SD, n=10. *p≦0.05, **p≦0.01. Wild type (WT), transgenic Brassica with empty vector (pHB) and mCherry transgenic Brassica (L1-L3) were germinated in the phytotron under white light (light intensity: 250 μmol m^−2s^−1) for 1 week. Then the plants were transferred and continued to grow under white light, green light (light intensity: 60 μmol m^−2s^−1), red+blue light (intensity of red light: 60 μmol m^−2s^−1; intensity of blue light: 10 μmol m^−2s^−1). The […] were taken three weeks after transfer.

Substance | O2 evolution activity [1] | plant growth vs WT [3] | other results
eqFP611: fluorescent protein from Entacmaea quadricolor (AY130757), SEQ ID NO: 30 | + | – | –
YFP: yellow fluorescent protein, amino acid sequence SEQ ID NO: 8 | + | – | water photohydrolysis and O2 evolution activity under light ([1]; TMBQ substituted with DQ or UQ): does not have water photohydrolysis and O2 evolution activity; activity of water hydrolysis among the quinones tested (order) ([1]; different quinones, under light): TMBQ>DMBQ2>MBQ>DMBQ1; function as electron donor under light [2]: cannot continuously provide electrons under light
mCherrymu3: mCherry mutant S151C S152C K167M, SEQ ID NO: 22 | – | grow better than WT | O2 evolution rate, increase ([1]; vs non-mutated protein, under light): 6 folds
mCherrymu5: mCherry mutant S151C S152C H166N K167M I202A, SEQ ID NO: 26 | – | grow better than WT | –
mCherrymu4: mCherry mutant S151C S152C K167M I202A, SEQ ID NO: 24 | – | grow better than WT | –

From patent publication US20170037425A1, “METHOD FOR IMPROVING PLANT TRAIT” (SHANGHAI INSTITUTES FOR BIOLOGICAL SCIENCES, CHINESE …, priority 2012, published 2017)
